Values after ≈ are worked out from the molar mass of the structure shown.
Test system: M. tuberculosis isoniazid-resistant strain (spec. 210)
Test: Tuberculostatic activity, test-tube dilution
Type: cell-based
Conditions: Mycobacterium tuberculosis, read-out: MIC M. tuberculosis Isoniazid-Resistant Strain

SMILES | MIC [µg/mL]
NNC(=O)c1ccncc1 [Isoniazid, isoniazid, reference compound] | 6.25 (≈ 45.6 µM)
CCC(C(=O)NCc1cccc(F)c1)C1CCC(C)C(C(C)C(O)C(C)C(=O)C(CC)C2OC3(C=CC(O)C4(CCC(C)(C5CCC(O)(CC)C(C)O5)O4)O3)C(C)CC2C)O1 (centres unmarked) [F-m] | > 100
CC[C@H](C(=O)NCc1ccccc1Br)C1CC[C@H](C)C([C@@H](C)[C@H](O)[C@H](C)C(=O)[C@H](CC)C2O[C@]3(C=C[C@@H](O)C4(CC[C@@](C)(C5CC[C@](O)(CC)[C@H](C)O5)O4)O3)[C@H](C)C[C@@H]2C)O1 (some centres unmarked) [Br-o] | > 100
CC[C@@H](C(=O)[C@@H](C)[C@@H](O)[C@H](C)[C@@H]1O[C@@H]([C@@H](CC)C(=O)O)CC[C@@H]1C)[C@H]1O[C@]2(C=C[C@@H](O)[C@]3(CC[C@@](C)([C@H]4CC[C@](O)(CC)[C@H](C)O4)O3)O2)[C@H](C)C[C@@H]1C [SAL, Salinomycin] | 50 (≈ 66.6 µM)
CC[C@H](C(=O)NCc1ccc(F)cc1)C1CC[C@H](C)C([C@@H](C)[C@H](O)[C@H](C)C(=O)[C@H](CC)C2O[C@]3(C=C[C@@H](O)C4(CC[C@@](C)(C5CC[C@](O)(CC)[C@H](C)O5)O4)O3)[C@H](C)C[C@@H]2C)O1 (some centres unmarked) [F-p] | 50 (≈ 58.3 µM)
CCC(C(=O)NCc1ccccc1F)C1CCC(C)C(C(C)C(O)C(C)C(=O)C(CC)C2OC3(C=CC(O)C4(CCC(C)(C5CCC(O)(CC)C(C)O5)O4)O3)C(C)CC2C)O1 (centres unmarked) [F-o] | 100 (≈ 117 µM)
CC[C@H](C(=O)NCc1ccc(Br)cc1)C1CC[C@H](C)C([C@@H](C)[C@H](O)[C@H](C)C(=O)[C@H](CC)C2O[C@]3(C=C[C@@H](O)C4(CC[C@@](C)(C5CC[C@](O)(CC)[C@H](C)O5)O4)O3)[C@H](C)C[C@@H]2C)O1 (some centres unmarked) [Br-p] | 100 (≈ 109 µM)
CC[C@H](C(=O)NCc1cccc([N+](=O)[O-])c1)C1CC[C@H](C)C([C@@H](C)[C@H](O)[C@H](C)C(=O)[C@H](CC)C2O[C@]3(C=C[C@@H](O)C4(CC[C@@](C)(C5CC[C@](O)(CC)[C@H](C)O5)O4)O3)[C@H](C)C[C@@H]2C)O1 (some centres unmarked) [NO2-m] | > 100
CC[C@H](C(=O)NCc1ccc([N+](=O)[O-])cc1)C1CC[C@H](C)C([C@@H](C)[C@H](O)[C@H](C)C(=O)[C@H](CC)C2O[C@]3(C=C[C@@H](O)C4(CC[C@@](C)(C5CC[C@](O)(CC)[C@H](C)O5)O4)O3)[C@H](C)C[C@@H]2C)O1 (some centres unmarked) [NO2-p] | 50 (≈ 56.5 µM)
CC[C@H](C(=O)NCc1cccc(Cl)c1)C1CC[C@H](C)C([C@@H](C)[C@H](O)[C@H](C)C(=O)[C@H](CC)C2O[C@]3(C=C[C@@H](O)C4(CC[C@@](C)(C5CC[C@](O)(CC)[C@H](C)O5)O4)O3)[C@H](C)C[C@@H]2C)O1 (some centres unmarked) [Cl-m] | > 100
CCC(C(=O)NCc1ccccc1[N+](=O)[O-])C1CCC(C)C(C(C)C(O)C(C)C(=O)C(CC)C2OC3(C=CC(O)C4(CCC(C)(C5CCC(O)(CC)C(C)O5)O4)O3)C(C)CC2C)O1 (centres unmarked) [NO2-o] | 100 (≈ 113 µM)
CC[C@H](C(=O)NCc1cccc(Br)c1)C1CC[C@H](C)C([C@@H](C)[C@H](O)[C@H](C)C(=O)[C@H](CC)C2O[C@]3(C=C[C@@H](O)C4(CC[C@@](C)(C5CC[C@](O)(CC)[C@H](C)O5)O4)O3)[C@H](C)C[C@@H]2C)O1 (some centres unmarked) [Br-m] | > 100
CC[C@H](C(=O)NCc1ccc(Cl)cc1)C1CC[C@H](C)C([C@@H](C)[C@H](O)[C@H](C)C(=O)[C@H](CC)C2O[C@]3(C=C[C@@H](O)C4(CC[C@@](C)(C5CC[C@](O)(CC)[C@H](C)O5)O4)O3)[C@H](C)C[C@@H]2C)O1 (some centres unmarked) [Cl-p, p-chlorobenzyl amide of salinomycin] | > 100
CC[C@H](C(=O)NCc1ccccc1Cl)C1CC[C@H](C)C([C@@H](C)[C@H](O)[C@H](C)C(=O)[C@H](CC)C2O[C@]3(C=C[C@@H](O)C4(CC[C@@](C)(C5CC[C@](O)(CC)[C@H](C)O5)O4)O3)[C@H](C)C[C@@H]2C)O1 (some centres unmarked) [Cl-o] | > 100
